Patent publication US7405314B2 (priority 2004, dated 2008)

Experiments:
[1] = system: HL60 human leukemia cells; format: cell-based
[2] = system: panel of 60 tumor cell lines; format: cell-based, human
Swiss Webster mice = conditions: mouse, in vivo
mice = conditions: mouse, in vivo
[3] = system: U937/PR9 cells (PML/RAR alpha); format: cell-based, human
HL60 cells = format: cell-based, human

SMILES: C[As](C)SC[C@H](NC(=O)CC[C@H](N)C(=O)O)C(=O)NCC(=O)O [SGLU1, S-(Dimethylarsino) Glutathione]
- induction of apoptosis (annexin V staining), events involved [1]: involves change of the potential of mitochondrial membrane (CMXRos staining) and activation of caspases
- anticancer activity against tumor cell line panel [2]: evidence of activity at low concentrations
- tolerability (Swiss Webster mice): tolerated
- doses at which deaths occurred (mice; both, iv): 250, 300, and 350 mg/kg/day
- no-observable-effect level for female mice (mice; female, iv): 150 mg/kg
- no-observable-effect level (NOEL) for male mice (mice; male, iv): 100 mg/kg/day
- testicular seminiferous tubular degeneration, incidence (mice; 150 mg/kg/day): ⅕
- centrilobular hypertrophy of hepatocytes, incidence (mice; 200 mg/kg/day): ⅕
- organs with compound-related lesions (mice; iv): lung, liver, thymus, and testes
- sex difference in susceptibility (deaths) (mice; iv): female mice being more susceptible than males
- toxicity to normal cells compared with arsenic trioxide (normal donor cells): less toxic then arsenic trioxide
- influence of functional PML/Rar alpha gene on sensitivity of the cells [3]: no influence on the sensitivity
- cell cycle disturbance (HL60 cells): marked accumulation of cells in S-phase
